According to ChEMBL document CHEMBL1147457, “Thiourea inhibitors of herpes viruses. Part 2: N-Benzyl-N'-arylthiourea inhibitors of CMV” (Bioorg Med Chem Lett, 2004):

Key:
Human alphaherpesvirus 2 = assay: Inhibitory activity against herpes simplex virus was determined; assay type: functional, organism-based
Cytomegalovirus = assay: Inhibitory activity against cytomegalo virus was determined; assay type: functional, organism-based; settings: Human betaherpesvirus 5
[1] = system: Respiratory syncytial virus; assay: Inhibitory activity against respiratory syncytial virus was determined; assay type: functional, organism-based; settings: human respiratory syncytial virus
Human alphaherpesvirus 3 = assay: Inhibitory activity against varicella zoster virus was determined; assay type: functional, organism-based
[2] = Inhibitory activity against MTS host cell toxicity was determined; assay type: functional

Row | SMILES | IC50 (Human alphaherpesvirus 2) | IC50 (Cytomegalovirus) | IC50 [1] | IC50 (Human alphaherpesvirus 3) | IC50 [2]
1 | O=C(Nc1ccc(/N=C(\S)Nc2cc(C(F)(F)F)cc(C(F)(F)F)c2)cc1)c1csnn1 | > 5 µM | 0.037 µM | 5 µM | > 5 µM | –
2 | O=C(Nc1ccc(/N=C(\S)Nc2cc(C(F)(F)F)cc(C(F)(F)F)c2)cc1)c1cscn1 | > 5 µM | 0.016 µM | > 5 µM | > 5 µM | –
3 | CCCC(/N=C(\S)Nc1ccc(NC(=O)c2csnn2)cc1)c1cc(C(F)(F)F)cc(C(F)(F)F)c1 (configuration not stated) | > 5 µM | 0.001 µM | > 5 µM | > 3.7 µM | > 7.5 µM
4 | O=C(Nc1ccc(N/C(S)=N/C(c2ccccc2)c2cc(C(F)(F)F)cc(C(F)(F)F)c2)cc1)c1csnn1 (configuration not stated) | > 5 µM | 0.002 µM | > 5 µM | > 3.7 µM | > 7.5 µM
5 | O=C(Nc1ccc(N/C(S)=N/Cc2cc(C(F)(F)F)cc(C(F)(F)F)c2)cn1)c1csnn1 | > 5 µM | 0.0044 µM | > 5 µM | > 3.7 µM | > 7.5 µM
6 | CC(/N=C(\S)Nc1ccc(NC(=O)c2csnn2)cc1)c1cc(C(F)(F)F)cc(C(F)(F)F)c1 (configuration not stated) | > 5 µM | 0.003 µM | > 5 µM | > 3.7 µM | > 7.5 µM
7 | CC(C)(/N=C(\S)Nc1ccc(NC(=O)c2csnn2)cc1)c1cc(C(F)(F)F)cc(C(F)(F)F)c1 | > 5 µM | 0.004 µM | > 5 µM | > 3.7 µM | > 7.5 µM
8 | C[C@H](/N=C(\S)Nc1ccc(NC(=O)c2csnn2)nc1)c1cc(C(F)(F)F)cc(C(F)(F)F)c1 | 4.1 µM | 0.003 µM | > 5 µM | > 3.7 µM | 8 µM
9 | O=C(Nc1ccc(N/C(S)=N/Cc2cc(C(F)(F)F)cc(C(F)(F)F)c2)cc1)c1csnn1 | > 5 µM | 0.002 µM | > 5 µM | > 5 µM | –
10 | CCC(/N=C(\S)Nc1ccc(NC(=O)c2cscn2)cc1)c1cc(C(F)(F)F)cc(C(F)(F)F)c1 (configuration not stated) | 4.1 µM | 0.0002 µM | > 5 µM | > 3.7 µM | > 7.5 µM
11 | C[C@H](/N=C(\S)Nc1ccc(NC(=O)c2csnn2)cc1)c1cc(C(F)(F)F)cc(C(F)(F)F)c1 | > 5 µM | 0.003 µM | > 5 µM | > 3.7 µM | > 7.5 µM
12 | C[C@@H](/N=C(\S)Nc1ccc(NC(=O)c2cscn2)cc1)c1cc(C(F)(F)F)cc(C(F)(F)F)c1 | > 5 µM | 0.0015 µM | 2 µM | > 3.7 µM | > 7.5 µM
13 | C[C@@H](/N=C(\S)Nc1ccc(NC(=O)c2cscn2)nc1)c1cc(C(F)(F)F)cc(C(F)(F)F)c1 | > 5 µM | 0.0028 µM | 1 µM | > 3.7 µM | > 7.5 µM
14 | C[C@H](/N=C(\S)Nc1ccc(NC(=O)c2cscn2)cc1)c1cc(C(F)(F)F)cc(C(F)(F)F)c1 | > 5 µM | 0.0006 µM | > 5 µM | > 3.7 µM | > 7.5 µM
15 | C[C@H](/N=C(\S)Nc1ccc(NC(=O)c2cscn2)nc1)c1cc(C(F)(F)F)cc(C(F)(F)F)c1 | > 5 µM | 0.002 µM | > 5 µM | > 3.7 µM | > 7.5 µM
16 | CCC(/N=C(\S)Nc1ccc(NC(=O)c2csnn2)cc1)c1cc(C(F)(F)F)cc(C(F)(F)F)c1 (configuration not stated) | 5 µM | 0.001 µM | > 5 µM | > 3.7 µM | > 7.5 µM
